Results: ChEMBL document CHEMBL1201862, “PubChem BioAssay data set” (2004)
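Growth conditions: 96-well plates. Treatment: test compound, 48 hours, 5 concentrations. Analysis: linear interpolation between bracketing concentrations; unreached endpoints set to highest concentration. GI50 is the concentration that inhibits growth by half.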 Activity calls are given as the source filed them. Cut-off read from the data, not from the text of the source: active = GI50 up to about 1.1 µM and inactive = higher.

Experiments:
Test in all cases: NCI-60 cell line screen, 48 h
K562 = system: K562
OVCAR-5 = system: OVCAR-5
HCC 2998 = system: HCC 2998
HCT-15 = system: HCT-15
M14 = system: M14
Malme-3M = system: Malme-3M
U-251 = system: U-251
ACHN = system: ACHN
UACC-257 = system: UACC-257
SK-MEL-28 = system: SK-MEL-28
A549 = system: A549
HOP-92 = system: HOP-92
SNB-19 = system: SNB-19
T47D = system: T47D
HCT-116 = system: HCT-116
NCI-H522 = system: NCI-H522
SK-MEL-2 = system: SK-MEL-2

Compound	GI50 (K562)	GI50 (OVCAR-5)	GI50 (HCC 2998)	GI50 (HCT-15)	GI50 (M14)	GI50 (Malme-3M)	GI50 (U-251)	GI50 (ACHN)	GI50 (UACC-257)	GI50 (SK-MEL-28)	GI50 (A549)	GI50 (HOP-92)	GI50 (SNB-19)	GI50 (T47D)	GI50 (HCT-116)	GI50 (NCI-H522)	GI50 (SK-MEL-2)
Cc1ccc(S(=O)ON2CCC(C(=O)O)(c3ccccc3)CC2)cc1 (centres undefined)	> 100 µM (inactive)	> 100 µM (inactive)	> 100 µM (inactive)	> 100 µM	> 100 µM (inactive)	> 100 µM (inactive)	> 100 µM (inactive)	> 100 µM (inactive)	> 100 µM (inactive)	> 100 µM (inactive)	> 100 µM (inactive)	45.5 µM (inactive)	> 100 µM (inactive)	> 100 µM (inactive)	> 100 µM (inactive)	> 100 µM (inactive)	–
O=C(OCC(OC(=O)c1ccccc1)C(OC(=O)c1ccccc1)C(OC(=O)c1ccccc1)c1cnn(-c2ccccc2)n1)c1ccccc1 (centres undefined)	> 100 µM (inactive)	> 100 µM (inactive)	> 100 µM (inactive)	> 100 µM	> 100 µM (inactive)	> 100 µM (inactive)	–	> 100 µM (inactive)	> 100 µM (inactive)	> 100 µM (inactive)	> 100 µM (inactive)	> 100 µM (inactive)	> 100 µM (inactive)	> 100 µM (inactive)	> 100 µM (inactive)	> 100 µM (inactive)	–
C=CC1(c2ccc(Br)cc2)OCCCO1	> 100 µM (inactive)	> 100 µM (inactive)	> 100 µM (inactive)	> 100 µM	> 100 µM (inactive)	> 100 µM (inactive)	> 100 µM (inactive)	> 100 µM (inactive)	> 100 µM (inactive)	> 100 µM (inactive)	> 100 µM (inactive)	> 100 µM (inactive)	> 100 µM (inactive)	> 100 µM (inactive)	> 100 µM (inactive)	> 100 µM (inactive)	> 100 µM (inactive)
COC(=O)C1CC(C=[N+](C)C)=C(SC)N1 (centres undefined)	> 100 µM (inactive)	> 100 µM (inactive)	> 100 µM (inactive)	> 100 µM	> 100 µM (inactive)	> 100 µM (inactive)	> 100 µM (inactive)	> 100 µM (inactive)	> 100 µM (inactive)	> 100 µM (inactive)	–	> 100 µM (inactive)	> 100 µM (inactive)	> 100 µM (inactive)	> 100 µM (inactive)	> 100 µM (inactive)	> 100 µM (inactive)
Nc1nc(-c2ccccc2)nc2oc(-c3cccs3)nc12	> 100 µM (inactive)	> 100 µM (inactive)	> 100 µM (inactive)	> 100 µM	> 100 µM (inactive)	–	> 100 µM (inactive)	> 100 µM (inactive)	> 100 µM (inactive)	> 100 µM (inactive)	> 100 µM (inactive)	> 100 µM (inactive)	> 100 µM (inactive)	> 100 µM (inactive)	> 100 µM (inactive)	> 100 µM (inactive)	> 100 µM (inactive)
COc1ccc(-n2c(N)c(C#N)c(C#N)c2-c2ccccc2)cc1	–	> 100 µM (inactive)	> 100 µM (inactive)	> 100 µM	> 100 µM (inactive)	> 100 µM (inactive)	30.1 µM (inactive)	> 100 µM (inactive)	> 100 µM (inactive)	–	> 100 µM (inactive)	10.1 µM (inactive)	29.6 µM (inactive)	4.57 µM (inactive)	> 100 µM (inactive)	59.4 µM (inactive)	22.8 µM (inactive)
Cc1ccc(S(=O)(=O)NNC(C[N+](=O)[O-])c2ccccc2)cc1 (centres undefined)	0.787 µM (active)	44.8 µM (inactive)	2.9 µM (inactive)	15.9 µM	5.65 µM (inactive)	29 µM (inactive)	14.5 µM (inactive)	16.1 µM (inactive)	19.7 µM (inactive)	–	16.7 µM (inactive)	39.8 µM (inactive)	7.14 µM (inactive)	10.9 µM (inactive)	4.14 µM (inactive)	23.4 µM (inactive)	34.2 µM (inactive)
CC(=O)Oc1c(-c2ccccc2)oc2ccccc12	2.06 µM (inactive)	1.85 µM (inactive)	1.31 µM (inactive)	1.99 µM	2.02 µM (inactive)	2.83 µM (inactive)	1.04 µM (active)	1.79 µM (inactive)	2.59 µM (inactive)	2.38 µM (inactive)	1.51 µM (inactive)	2.4 µM (inactive)	1.53 µM (inactive)	1.98 µM (inactive)	1.66 µM (inactive)	2.3 µM (inactive)	1.8 µM (inactive)
CCCCN(C)C(=O)C1=C(C)NC(C)=C(C(=O)N(C)CCCC)C1	54.3 µM (inactive)	> 100 µM (inactive)	> 100 µM (inactive)	> 100 µM	> 100 µM (inactive)	–	> 100 µM (inactive)	> 100 µM (inactive)	> 100 µM (inactive)	> 100 µM (inactive)	> 100 µM (inactive)	> 100 µM (inactive)	> 100 µM (inactive)	54.7 µM (inactive)	> 100 µM (inactive)	> 100 µM (inactive)	> 100 µM (inactive)
COC(=O)C(/C(=N\O)C(=O)Nc1cccc(Cl)c1C)c1cnc2ccccc2n1 (centres undefined)	> 100 µM (inactive)	> 100 µM (inactive)	> 100 µM (inactive)	> 100 µM	> 100 µM (inactive)	> 100 µM (inactive)	> 100 µM (inactive)	> 100 µM (inactive)	> 100 µM (inactive)	> 100 µM (inactive)	> 100 µM (inactive)	> 100 µM (inactive)	> 100 µM (inactive)	> 100 µM (inactive)	> 100 µM (inactive)	> 100 µM (inactive)	> 100 µM (inactive)
CC12CC(OC(=O)[C@]1(C)O)[C@@H]([C@]1(O)CC[C@H]3[C@@H]4C[C@H]5O[C@]56[C@@H](O)C=CC(=O)[C@]6(C)[C@H]4CC[C@@]31C)C2 (some centres undefined)	3.17 µM (inactive)	11 µM (inactive)	16.2 µM (inactive)	7.33 µM	9.02 µM (inactive)	–	13.8 µM (inactive)	10.9 µM (inactive)	7 µM (inactive)	11.7 µM (inactive)	30.5 µM (inactive)	2.92 µM (inactive)	40.1 µM (inactive)	8.02 µM (inactive)	3.63 µM (inactive)	1.16 µM (inactive)	6.08 µM (inactive)
CC1(C)CCCC(C)(C2CCC3(C)C2C(O)CC2C4(C)CCC(O)C(C)(C)C4CCC23C)O1 (centres undefined)	91.8 µM (inactive)	> 100 µM (inactive)	> 100 µM (inactive)	> 100 µM	> 100 µM (inactive)	98.6 µM (inactive)	> 100 µM (inactive)	56.9 µM (inactive)	> 100 µM (inactive)	> 100 µM (inactive)	> 100 µM (inactive)	76.6 µM (inactive)	42.6 µM (inactive)	> 100 µM (inactive)	> 100 µM (inactive)	75.5 µM (inactive)	> 100 µM (inactive)
